The assay deals with T1, human ferroportin (Homo sapiens, UniProt Q9NP59).
T1 construct: expressed in transfected cells
T1 sequence (Q9NP59 1-571): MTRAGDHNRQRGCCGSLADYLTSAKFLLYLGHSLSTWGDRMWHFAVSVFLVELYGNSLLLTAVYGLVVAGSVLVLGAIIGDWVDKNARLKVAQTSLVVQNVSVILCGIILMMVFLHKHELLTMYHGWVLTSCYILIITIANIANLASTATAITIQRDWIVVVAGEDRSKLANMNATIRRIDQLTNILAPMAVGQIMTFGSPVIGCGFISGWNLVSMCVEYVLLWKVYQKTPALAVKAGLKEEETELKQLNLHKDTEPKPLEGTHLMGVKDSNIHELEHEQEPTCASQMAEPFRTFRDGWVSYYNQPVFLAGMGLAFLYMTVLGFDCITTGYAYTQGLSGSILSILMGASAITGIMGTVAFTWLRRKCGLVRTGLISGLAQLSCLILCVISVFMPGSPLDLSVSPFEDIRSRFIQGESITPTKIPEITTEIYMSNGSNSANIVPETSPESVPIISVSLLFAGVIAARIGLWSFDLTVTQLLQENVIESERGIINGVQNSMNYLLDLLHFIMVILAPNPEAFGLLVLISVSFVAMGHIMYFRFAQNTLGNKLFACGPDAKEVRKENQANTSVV
Nature of the assay: ferroportin internalization assay (inhibition of hepcidin-induced internalization of Fpn). The following applies: MDCK-FPN-HaloTag cells, 100 nM hepcidin, overnight incubation; concentration range from 0.04 to 40 μM. Type of assay: cell-based. In outline:
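MDCK cells stably expressing human ferroportin–HaloTag were labelled with TMR ligand, then incubated overnight at 37 °C with compound plus 100 nM hepcidin (final). After fixation and nuclear staining, confocal imaging quantified membrane Fpn fluorescence to measure blocking of hepcidin-induced internalization.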

In general, IC50 refers to the concentration at which inhibition is half-maximal. High values mean weaker potency, low ones greater potency. As for `CNC(=O)c1ccnc2c(NS(=O)(=O)c3ccccc3)cccc12` [Example 538, 8-Benzenesulfonylamino-quinoline-4-carboxylic acid methylamide], inhibition was half-maximal at 6.24 µM (IC50).

Regarding `NC(=O)c1ccnc2c(NS(=O)(=O)c3ccccc3)cccc12` [Example 539, 8-Benzenesulfonylamino-quinoline-4-carboxylic acid amide], half-maximal inhibition (IC50) was put at 10.4 µM.

Compound `CN(C)C(=O)c1ccnc2c3c(ccc12)-c1ccccc1S(=O)(=O)N3` [Example 541, 6,6-Dioxo-5,6-dihydro-6λ*6*-thia-4,5-diaza-chrysene-1-carboxylic acid dimethylamide] gave an IC50 of 21 µM.

Turning to `CNC(=O)c1ccnc2c3c(ccc12)-c1ccccc1S(=O)(=O)N3` [Example 542, 6,6-Dioxo-5,6-dihydro-6λ*6*-thia-4,5-diaza-chrysene-1-carboxylic acid methylamide], 4.77 µM corresponded to half-maximal inhibition (IC50).

Consider `O=C(NCCN1CCCCC1)c1ccnc2c3c(ccc12)-c1ccccc1S(=O)(=O)N3` [Example 544, 6,6-Dioxo-5,6-dihydro-6λ*6*-thia-4,5-diaza-chrysene-1-carboxylic acid (2-piperidin-1-yl-ethyl)-amide], for which half-maximal inhibition (IC50) was put at 2 µM.

On to `O=S1(=O)Nc2c(cc(Br)c3cccnc23)-c2ccccc21` [Example 545, 12-Bromo-5H-6-thia-4,5-diaza-chrysene 6,6-dioxide], for which the IC50 was found to be 12.6 µM.

On to `CN(C)CCNc1cc2c(c3ncccc13)NS(=O)(=O)c1ccccc1-2` [Example 546, N′-(6,6-Dioxo-5,6-dihydro-6λ*6*-thia-4,5-diaza-chrysen-12-yl)-N,N-dimethyl-ethane-1,2-diamine], for which the IC50 was found to be 9.98 µM.

For `O=S1(=O)Nc2c(cc(NCCN3CCOCC3)c3cccnc23)-c2ccccc21` [Example 547, (6,6-Dioxo-5,6-dihydro-6λ*6*-thia-4,5-diaza-chrysen-12-yl)-(2-morpholin-4-yl-ethyl)-amine], the midpoint of inhibition, the IC50, lay at 22 µM.

The compound `COCCNc1cc2c(c3ncccc13)NS(=O)(=O)c1ccccc1-2` [Example 548, (6,6-Dioxo-5,6-dihydro-6λ*6*-thia-4,5-diaza-chrysen-12-yl)-(2-methoxy-ethyl)-amine] registered an IC50 of 2.83 µM.

`O=S1(=O)Nc2c(cc(N3CCOCC3)c3cccnc23)-c2ccccc21` [Example 549, 12-Morpholin-4-yl-5H-6-thia-4,5-diaza-chrysene 6,6-dioxide] gave an IC50 of 1.14 µM.

As to `O=S1(=O)Nc2c(cc(N3CCCCC3)c3cccnc23)-c2ccccc21` [Example 551, 12-Piperidin-1-yl-5H-6-thia-4,5-diaza-chrysene 6,6-dioxide], the concentration for half-maximal inhibition (IC50) amounted to 1.56 µM.

`CN(C)CCN(C)c1cc2c(c3ncccc13)NS(=O)(=O)c1ccccc1-2` [Example 552, N-(6,6-Dioxo-5,6-dihydro-6λ*6*-thia-4,5-diaza-chrysen-12-yl)-N,N′,N′-trimethyl-ethane-1,2-diamine]: the IC50 amounted to 5 µM.

With `O=S1(=O)Nc2c(cc(N3CCCC3)c3cccnc23)-c2ccccc21` [Example 553, 12-Pyrrolidin-1-yl-5H-6-thia-4,5-diaza-chrysene 6,6-dioxide], the IC50 came out at 4.36 µM.

Compound `COCCN(C)c1cc2c(c3ncccc13)NS(=O)(=O)c1ccccc1-2` [Example 554, (6,6-Dioxo-5,6-dihydro-6λ*6*-thia-4,5-diaza-chrysen-12-yl)-(2-methoxy-ethyl)-methyl-amine] had an IC50 of 0.55 µM. This IC50 is about 7.9-fold lower than that of the compound before.

`CN(C)CCOc1cc2c(c3ncccc13)NS(=O)(=O)c1ccccc1-2` [Example 562, [2-(6,6-Dioxo-5,6-dihydro-6λ*6*-thia-4,5-diaza-chrysen-12-yloxy)-ethyl]-dimethyl-amine] yielded a concentration for half-maximal inhibition (IC50) of 2.76 µM.

As for `COc1cc2c(c3ncccc13)NS(=O)(=O)c1ccc(C(F)(F)F)cc1-2` [Example 589, 12-Methoxy-9-trifluoromethyl-5H-6-thia-4,5-diaza-chrysene 6,6-dioxide], the half-inhibitory concentration (IC50) turned out to be 0.96 µM.

Source of the values: patent US9102688B2, “Sulfonaminoquinoline hepcidin antagonists” (Vifor (International) AG, priority 2011, dated 2015).
